Reference: patent publication US11253497B2, “Use of derivatives of polyunsaturated fatty acids as medicaments” (Lipopharma Therapeutics, S.L., priority 2009, dated 2022)

Experiments:
[1] = test system: breast cancer cells MDA-MB-231; assay: Growth of breast cancer cells MDA-MB-231; assay type: cell-based; settings: 72 hours of incubation
Procedure: (§1) For the experiments shown in FIG. 1, cultured human Non Small Cell Lung Cancer cells (A549) in RPMI 1640 were used, supplemented with 10% foetal bovine serum and antibiotics, at 37° C. and 5% CO2. […] After treatment, cell count was performed and the study of the mechanisms involved in the antitumor activity of compounds was evaluated by flow cytometry. […] These values correspond to averages of three independent experiments.
(§2) These charts show the antitumor efficacy of the compounds of this invention against the growth of breast cancer cells, brain (glioma), and lung cancer. […] The other experimental conditions are identical to those described in the preceding paragraph.

[2] = test system: brain cancer cell (glioma) U118; assay: Brain cancer (glioma) U118 cell growth; assay type: cell-based; settings: 72 hours of incubation
Procedure: For the experiments shown in FIG. 1, cultured human Non Small Cell Lung Cancer cells (A549) in RPMI 1640 were used, supplemented with 10% foetal bovine serum and antibiotics, at 37° C. and 5% CO2. Cells were maintained in culture for 48 hours in the presence or absence of D-PUFAs and PUFAs indicated in Table 2 at a concentration of 250 µM. After treatment, cell count was performed and the study of the mechanisms involved in the antitumor activity of compounds was evaluated by flow cytometry. […] These values correspond to averages of three independent experiments.
as §2

[3] = test system: lung cancer cells A549; assay: Growth of lung cancer cells A549 (IC50); assay type: cell-based, human; settings: 72 hours of incubation
Procedure: as §1, §2

[4] = test system: Spontaneously Hypertensive Rats (SHR); assay: Blood pressure of SHR rats (cuff-tail method); assay type: in vivo, rat; settings: 200 mg/kg day p.o., 30 days, before treatment 214 mmHg
Procedure: (§3) In a separate experimental series, it was studied the effect of D-PUFA molecules of the present invention on blood pressure of SHR rats. In these animals both, blood pressure and levels of apolipoprotein AI (apoA-I) were measured. For these experiments Spontaneously Hypertensive Rats (SHR) were treated for 30 days with vehicle (water control) or compounds of the invention (200 mg/kg day, p.o.). At the end of this period, the animals' blood pressure and serum levels of apoA-I were measured. […] For these experiments, non-invasive methods for determining blood pressure (cuff-tail method) and gene expression for apoA-I (RT-PCR) described in the literature (Terés et al., 2008) were used. The usefulness of the molecules of the present invention for the treatment of cardiovascular diseases is reinforced by its capacity for reducing the levels of serum cholesterol and triglycerides (see below).
(§4) The average values of SHR before treatment were 214 mmHg and 100% respectively.

[5] = test system: apolipoprotein AI (apoA-I); assay: Levels of apoA-I in SHR rats (RT-PCR); assay type: in vivo, rat; settings: 200 mg/kg day p.o., 30 days, before treatment 100%
Procedure: as §3, §4

[6] = test system: P19 cells; assay: NMDA-induced neuronal death in P19 cells; assay type: cell-based; settings: NMDA alone 100% death, control without NMDA 0%; negative values = proliferation
[7] = test system: α-synuclein; assay: Expression of α-synuclein in neuronal cultures (cells P19); assay type: cell-based; settings: untreated cells 100%
[8] = test system: COX-2; assay: Expression of COX-2 in LPS-stimulated monocytes in culture; assay type: cell-based, human; settings: positive control with LPS 100%
Source text: FIG. 5A also presents a drawing showing the COX-2/COX-1 relationship as % of control (Y axis) for the following compounds (X-axis): OOA (2-hydroxy-oleic acid), OLA (182A1), OALA (183A1), OGLA (183A2), OARA (204A1), OEPA (205A1), ODHA (226A1). […] The reduction of this factor is directly related to the anti-inflammatory medication. The compounds are the same as in the left pane.
(§5) Cyclooxygenase (COX) is an enzyme that can bind to membranes, taking certain lipids from there and catalyze its conversion into molecules that can have inflammatory activity. The binding of this enzyme to membrane lipids is due in part to the membrane lipid structure. The increased activity of COX 1 and 2 isoforms has been associated with the etiopathology of a number of inflammatory diseases by […] arachidonic acid metabolism to produce pro-inflammatory lipid mediators. The D-PUFA compounds of the present invention produced a series of cellular signals that alter the metabolism of arachidonic acid and, as a result, they inhibit the activity and expression of COX in monocytes in culture (Table 14 and FIG. 5A). […] For this purpose, C57BL6/J mice were treated with the various derivatives (200 mg/kg, p.o.,) after inducing an inflammatory reaction in them by intraperitoneal injection of 20 μg of bacterial lipopolysaccharide (LPS).
Inhibition of COX-2 expression in monocytes. Percentages of inhibition (compared to the positive control in the presence of LPS, 100%) of COX-2 protein levels (expression) by the various fatty acid derivatives.

[9] = test system: TNF-α; assay: Production of TNF-α in serum of LPS-injected C57BL6/J mice; assay type: in vivo; settings: LPS 20 μg i.p. (100%), 200 mg/kg p.o.
Source text: as §5

[10] = Serum cholesterol, triglycerides and glucose in SHR rats (colorimetric); assay type: in vivo, rat; settings: 200 mg/kg daily p.o., 28 days, untreated rats 100%
Procedure: In a separate experimental series, SHR rats were treated with various compounds of the present invention (200 mg/kg daily, 28 days, p.o.) and the levels of cholesterol, triglycerides and glucose in serum were measured by colorimetric methods. It was observed that these compounds induce significant (and in many cases marked) reductions in the levels of these metabolites (Table 16).
Values are expressed as percent, and in untreated (control) rats values were always considered as 100%.

Compound | IC50 [1] | IC50 [2] | IC50 [3] | Blood pressure [4] | Levels of apoA-I [5] | Neuronal death (P19 cells) after treatment with NMDA [6] | Expression of α-synuclein [7] | COX-2 protein levels (expression), percentages of inhibition compared to positive control [8] | Production of TNF-α in serum [9] | Cholesterol in serum (top number) [10] | Glucose in serum (bottom number) [10] | Triglycerides in serum (central number) [10]
CCCCCC=CCC=CCCCCCCC(O)C(=O)OP(=O)(OCC)OCC (stereo not drawn) [182F1] | 311 µM | 236 µM | 354 µM | 198 mm Hg | 192% | −45% | 71% | 56% | 86% | 92% | 89% | 88%
CCCCCC=CCC=CCCCCCCC(C)C(=O)[O-].[Na+] (stereo not drawn) [182L1] | 343 µM | 229 µM | 385 µM | 207 mm Hg | 131% | −32% | 80% | 67% | 85% | 89% | 94% | 93%
CCCCCC=CCC=CCCCCCCC(C)C(=O)OCC (stereo not drawn) [182N1] | 297 µM | 247 µM | 329 µM | 187 mm Hg | 159% | – | – | – | – | 92% | 90% | 93%
CCCCCC=CCC=CCCCCCCC(OC=O)C(=O)OCC (stereo not drawn) [182V1] | 442 µM | 231 µM | 340 µM | 207 mm Hg | 166% | −17% | 83% | 81% | 81% | 94% | 93% | 93%
CCC=CCC=CCC=CCCCCCCC(O)C(=O)OP(=O)(OCC)OCC (stereo not drawn) [183F1] | 323 µM | 354 µM | 347 µM | 203 mm Hg | 146% | −35% | 61% | 46% | 91% | 78% | 76% | 71%
CCCCCC=CCC=CCC=CCCCC(O)C(=O)OP(=O)(OCC)OCC (stereo not drawn) [183F2] | 181 µM | 401 µM | 259 µM | 191 mm Hg | 279% | −36% | 52% | 36% | 86% | 84% | 85% | 87%
CCC=CCC=CCC=CCCCCCCC(C)C(=O)OCC (stereo not drawn) [183N1] | 278 µM | 324 µM | 379 µM | 208 mm Hg | 189% | – | – | – | – | 72% | 84% | 69%
CCCCCC=CCC=CCC=CCCCC(C)C(=O)OCC (stereo not drawn) [183N2] | 186 µM | 385 µM | 255 µM | 194 mm Hg | 296% | – | – | – | – | 89% | 92% | 85%
CCCCCC=CCC=CCC=CCCCC(CO)C(=O)O (stereo not drawn) [183P2] | 214 µM | 389 µM | 272 µM | 187 mm Hg | 347% | – | – | – | – | – | – | –
CCCCCC=CCC=CCC=CCC=CCCC(C)C(=O)OCC (stereo not drawn) [204N1] | 274 µM | 315 µM | 420 µM | 201 mm Hg | 174% | – | – | – | – | 82% | 82% | 81%
CCCCCC=CCC=CCC=CCC=CCCC(CO)C(=O)O (stereo not drawn) [204P1] | 370 µM | 291 µM | 387 µM | 203 mm Hg | 153% | – | – | – | – | – | – | –
CCC=CCC=CCC=CCC=CCC=CCCC(C)C(=O)OCC (stereo not drawn) [205N1] | 289 µM | 513 µM | 384 µM | 189 mm Hg | 293% | – | – | – | – | 80% | 86% | 73%
CCC=CCC=CCC=CCC=CCC=CCCC(CO)C(=O)O (stereo not drawn) [205P1] | 301 µM | 432 µM | 339 µM | 194 mm Hg | 337% | – | – | – | – | – | – | –
CCC=CCC=CCC=CCC=CCC=CCC=CCC(CO)C(=O)O (stereo not drawn) [226P1] | 250 µM | 290 µM | 291 µM | 193 mm Hg | 382% | – | – | – | – | – | – | –
